The source of these data is US20050079495A1, “Modified tachykinin receptors” (priority 2000, published 2005).

In test [1] the test system is functional G-protein Ca^2+ linked pathway. The test is described as follows: Fura-2 calcium imaging, UTP challenge of COS-7 cells. Format: cell-based, monkey. To be noted: UTP 3μM, 1 min. How it is done:
Coverslips containing cells were prepared and maintained as described. Cultured cells were washed twice in a Krebs-Hepes extra-cellular medium buffer (EM, composition in mM: NaCl 118, KCl 4.7, MgSO4 1.2, CaCl2 1.2, KH2PO4 1.2, Hepes 10, glucose 11 and BSA 0.1%, (pH 7.2 at 20° C., (Rossant, et al Endocrinology, 140, 1525-1536), and then loaded with Fura-2 (Rossant, et al Endocrinology, 140, 1525-1536) by incubation for 3 h at 20° C. with EM containing Fura-2-AM (2 μM, Molecular Probes). This procedure enables the cells to load with Fura-2-AM, which becomes hydrolysed to the free acid form once inside the intact cells. After loading, coverslips were mounted into imaging chambers and perfused with EM to remove extra-cellular Fura-2-AM and to allow hydrolysis of intracellular Fura-2-AM to occur. Measurements of changes in the free [Ca^2+]i in individual cells were made from the fluorescence ratio (excitations 340 nm/380 nm, emission >510 nm) using a Spectral Wizard monochromator, cooled integrating CCD camera and a dedicated suite of software (Merlin, Life Sciences Resources, Cambridge, UK). Data are expressed as ratio units 340/380.
Genes encoding wild type sense, wild type anti-sense and variant NK-1 receptors described above were transiently transfected into COS-7 (monkey kidney) cell lines.

Test [2] concerns wild type anti-sense transfected COS-7 cells. The test is described as follows: Fura-2 calcium imaging, COS-7 cells transfected with wild type anti-sense construct (negative control). To be noted: COS-7 cells expressing wild type anti-sense, substance P 1 nM. Format: cell-based, monkey. How it is done:
The resulting cDNA was excised from the parental vector, spliced into a mammalian expression vector, pCMV3.1 (Invitrogen). This cDNA was in an orientation which allowed expression of the hNK-1vR polypeptide. Stock plasmid was prepared by amplification in E. coli and the plasmid DNA subsequently purified using a Qiagen endonuclease free DNA preparation kit, and the fidelity of the construct confirmed by DNA sequencing. The nucleic acid sequence of the cDNA is SEQ ID N^o6 (FIG. 2) and the translated protein sequence is SEQ ID N^o5 (FIG. 1). Similarly control (negative control) constructs were prepared whereby wild type and variant HNK-1R cDNA was spliced into the vector in an opposite configuration to that described above. A further control (positive control) was prepared by ligation of the parental wild type hNK-1R cDNA into the vector in a manner which would allow hNK-1R polypeptide to be expressed. […]
Coverslips containing cells were prepared and maintained as described. […] Measurements of changes in the free [Ca^2+]i in individual cells were made from the fluorescence ratio (excitations 340 nm/380 nm, emission >510 nm) using a Spectral Wizard monochromator, cooled integrating CCD camera and a dedicated suite of software (Merlin, Life Sciences Resources, Cambridge, UK). Data are expressed as ratio units 340/380. […]

As for `O=c1ccn([C@@H]2O[C@H](COP(=O)(O)OP(=O)(O)OP(=O)(O)O)[C@@H](O)[C@H]2O)c(=O)[nH]1` [UTP], the “[Ca^2+]i response to UTP challenge” value in test [1] was “caused a [Ca^2+]i response”.

Take “H-Arg-Pro-Lys-Pro-Gln-Gln-Phe-Phe-Gly-Leu-Met-NH2 [substance P]”: the “Ca^2+ response to substance P challenge” value in test [2] is on record as “failed to invoke a Ca^2+ response”.
